Data set [1] relates to ChP epithelial barrier. On the set-up: Km, uu, iCSF: unit not given beside the values.
The conditions of data set [2]: in vivo, from literature, cited from earlier work.
The conditions of data set [3]: cited from earlier work.
Data set [4] can be described thus: In vivo drug levels in CSF and blood plasma, and unbound CSF to plasma ratio (literature data). Details: species or system humans. The following applies: human, calculated from literature values (Qalb 0.005). Here is the method:
For comparison between in vitro and in vivo levels of small molecules in CSF, in vivo unbound CSF to blood plasma ratio, Kp,uu,CSF, was calculated as the ratio of the unbound drug in CSF (Cu,CSF) to that in blood plasma (Cu,p) similar to previously described (7) (eq A). The amount of unbound drug in each of CSF and plasma is the product of the total drug concentration (Cp) or (CCSF) and the fraction of drug that is unbound (fu,p) or (fu,CSF)(eqs B and C). Cp, CCSF, and fu,p were taken from literature (Table S2). However, because of the difficulty in obtaining large amounts of CSF, for most drugs fu,CSF is not known.

Data set [5] relates to ChP epithelial barrier. Description: ChP organoid small-molecule permeability, NMR analysis of media and iCSF. The following applies: for Presence in iCSF by NMR: after 2h incubation, 500 μM, L-Dopa in the presence of Carbidopa.
Method: On day 5 media was replaced with NI media in the same 96-well. After two days EBs were embedded in 20 μl matrigel using sheets of dimpled parafilm and incubated for 20 min at 37° C. as previously described (2). EBs were then transferred to a 6-well plate with 3 ml of Expansion media per well. For ChP patterning, on day 10 treatment with 3 μM CHIR and 20 ng/ml BMP4 in Maturation media was used keeping a maximum number of 6 EBs in each 5 cm dish. The treatment was kept for 7 days in maturation media. On day 15 organoids were moved to an incubator with a shaker and were fed every 3-4 days with maturation media. From day 30 dissolved matrigel (1:50) was added to the maturation media.
For NMR experiments, ChP organoids were incubated in complete IDM+A media without phenol red and 1:50 Geltrex (Gibco, A14132-02) for 2 h, 12h, 24 h, 48h or 72h. Organoid media and iCSF were collected and centrifuged at 500 g for 5 min to remove debris. ^1H-NMR spectra were acquired using a Bruker Ultrashield 400 Plus operating at 400.1 MHz. Samples consisting of H2O/D2O mixtures were analyzed using HOD suppression to collect ^1H-NMR data. Chemical shifts (6) are shown in ppm. The yields of conversion were determined by relative integration of the signals in the ^1H-NMR spectra. Data analysis was performed using MestReNova (version 7.0) and GraphPad Prism (version 7.0b).
Because the NMR measurements of in vitro fluids detected unbound drug, the ratio (Km,uu,iCSF) was a simple function of the ratio of drug in in vitro CSF (Cu,iCSF) to drug in media (Cu,m) (eq E).
Thus, in order to test for such selective permeability to small molecules, we applied various therapeutically relevant small molecules and assayed their permeability by NMR analysis of organoid iCSF. […] We incubated the organoids with Dopa and with L-Dopa in the presence of Carbidopa, a small molecule that prevents the conversion of L-Dopa into Dopa (34, 35).
For data set [6] the following is noted: in vivo data from mouse. The text has this: Pre-clinical or clinical data of this molecule in humans are not yet available, but Phase I clinical trials are under way so any additional human in vitro data would be informative.
For data set [7] the following is noted: cited from earlier work. The source holds these as a separate data set.
In another data set the test system is protein misfolding. The following applies: mouse model of Charcot-Marie Tooth-1B; cited from earlier work.
For data set [8] the following is noted: six trial participants, one of whom died; cited from earlier work.
Setting [9] is: total drug concentration in blood plasma.
The mark [10] stands for this setting: total drug concentration in CSF.
[11] abbreviates: in vivo data from mouse, estimate from graph in reference.
Where [12] appears, read: unbound concentrations reported, average of two measurements.

These results are taken from patent US12410407B2, “Choroid plexus organoids and methods for production thereof” (UNITED KINGDOM RESEARCH AND INNOVATION, priority 2019, dated 2025).

SMILES strings stand for the structures. Where two headings read alike, the source gives them in different places. Marks after values point to notes of the source that are not given here.

Regarding `CC(NC(C)(C)C)C(=O)c1cccc(Cl)c1` (stereo not drawn) [Bupropion], the “Km, uu, iCSF” value in the data set with ChP epithelial barrier [1] worked out at 1.07. In [2] (setting [9]), the Cp was 29.8 ng/mL.
Regarding `CN(Cc1cnc2nc(N)nc(N)c2n1)c1ccc(C(=O)N[C@@H](CCC(=O)O)C(=O)O)cc1` [Methotrexate], in the data set with ChP epithelial barrier [1], the “Km, uu, iCSF” value turned out to be 0.01. In addition, the CCSF in [2] (setting [10]) was 0.27 µM. The Cp in [2] (setting [9]) was 15.8 µM. The “Entry into brain/CSF in vivo as established in the literature” value (“Entry into brain/CSF in vivo” below) in data set [3] was “poorly cross the BBB”. For the same molecule, the Kp uu in data set [4] was 0.04.
Consider `N[C@@H](Cc1ccc(O)c(O)c1)C(=O)O` [L-DOPA, Levodopa], for which, in the data set on ChP epithelial barrier [1], the “iCSF/media ratio, L-Dopa compared to Dopa” value is “consistently higher”. The CCSF in data set [2] (setting [10]) is about 150 ng/mL. Besides, in data set [2] (setting [9]), the Cp was about 400 ng/mL. Also, the “Entry into brain/CSF in vivo” value in [3] is recorded as “actively transported in to the CSF via the LAT-1 transporter”.
On to `NC(N)=N/N=C/c1ccccc1Cl` [Sephin 1], for which the “Permeability in the human organoid model compared with the mouse model” value with ChP epithelial barrier [5] (2h incubation, compared with published mouse data) is recorded as “much lower”. The “Presence in iCSF by NMR” value in the data set with ChP epithelial barrier [5] is “detectable”. The “Kp, uu, CSF (total compound brain to plasma ratio)” value in data set [6] was 10^#. For the same molecule, in data set [7] (setting [11]), the CCSF is reported as about 110 ng/g and the Cp was about 11 ng/mL. The “BBB crossing in mouse” value in data set [7] (mouse) is “cross the BBB”. In addition, the “CNS effect against protein misfolding” value with protein misfolding is recorded as “protective CNS role against protein misfolding”.
As for `NCCc1ccc(O)c(O)c1` [Dopamine], the “Km, uu, iCSF” value with ChP epithelial barrier [1] is 0.10. Also, in data set [2] (Δ upon injection), the CCSF was 9.01 ng/mL and the Cp is 67.4 ng/mL. Moreover, the “Entry into brain/CSF in vivo” value in [3] is listed as “doesn't enter the brain in vivo”. For the same molecule, in [4], the Kp uu is 0.185.
For `CN(C(=O)n1cnc(-c2ccc[n+]([O-])c2)c1)C1CCCCC1` [BIA-10-2474], the “Time course of the ratio in iCSF to media” value in the data set with ChP epithelial barrier [5] (2 h, 12h, 24 h and 72h) is given as “continued to accumulate in the iCSF”. Also, in the data set with ChP epithelial barrier [5], the “Presence in iCSF by NMR” value is recorded as “able to cross the ChP epithelial barrier”. In addition, the “Adverse effects in Phase I clinical trials” value in data set [8] was “severe neurotoxicity”.
Turning to `CC[C@]1(O)C[C@H]2CN(CCc3c([nH]c4ccccc34)[C@@](C(=O)OC)(c3cc4c(cc3OC)N(C=O)[C@H]3[C@@](O)(C(=O)OC)[C@H](OC(C)=O)[C@]5(CC)C=CCN6CC[C@]43[C@@H]65)C2)C1` [Vincristine], in data set [2] (setting [12]), the CCSF was 0.000855 µM and the Cp is 0.0205 µM. The “Entry into brain/CSF in vivo” value in data set [3] is reported as “poorly cross the BBB”. The Kp uu in data set [4] is 0.042.
